Results published in PMC6375636, “Monotherapy with a low-dose lipopeptide HIV fusion inhibitor maintains long-term viral suppression in rhesus macaques” (PLoS Pathogens, 2019).
Peptide text beside a SMILES is read from it. * marks the point of attachment. Stearoyl = CCCCCCCCCCCCCCCCCC(=O)*

Assays:
Format in all cases: cell-based
HIV-1 89.6 = settings: Table 2; 89.6, subtype B, R5X4; mean ± SD of 3 assays in triplicate
Experimental: (§1) The inhibitory activities of inhibitors against HIV-1 pseudoviruses and replication-competent isolates were measured as described previously. Briefly, HIV-1 pseudoviruses were generated via the cotransfection of HEK293T cells with an Env-expressing plasmid and a backbone plasmid that encodes Env-defective, luciferase-expressing HIV-1 genome (pSG3Δenv). Viral stocks of replication-competent HIV-1 isolates were generated by transfecting viral molecular clones into HEK293T cells. Culture supernatants were harvested at 48 h posttransfection, and 50% tissue culture infectious doses (TCID50) in TZM-bl cells were determined. Inhibitors were prepared in 3-fold dilutions, mixed with 100 TCID50 of a virus, and then incubated for 1 h at room temperature. The mixture was added to TZM-bl cells (10^4/well), and the cells were incubated for additional 48 h at 37°C. Luciferase activity was measured as described above.

HIV-1 CH040.c/2625 = settings: Table 2; CH040.c/2625, subtype B, R5; mean ± SD of 3 assays in triplicate
Experimental: as §1

HIV-1 NL4-3 = settings: Table 2; NL4-3, subtype B, X4; mean ± SD of 3 assays in triplicate
Experimental: as §1

HIV-1 R3A = settings: Table 2, subtype B, R5X4, mean ± SD of 3 assays in triplicate
Experimental: as §1

HIV-1 WITO.c/2474 = settings: Table 2; WITO.c/2474, subtype B, R5; mean ± SD of 3 assays in triplicate
Experimental: as §1

[1] = system: HIV-1 pseudovirus, primary Env 43–22; settings: Env 43–22, subtype B'; mean ± SD of 3 assays in triplicate
Experimental: as §1

[2] = system: HIV-1 pseudovirus, primary Env AE03; settings: Env AE03, subtype A/E; mean ± SD of 3 assays in triplicate
Experimental: as §1

[3] = system: HIV-1 pseudovirus, primary Env B02; settings: Env B02, subtype B'; mean ± SD of 3 assays in triplicate
Experimental: as §1

[4] = system: HIV-1 pseudovirus, primary Env B04; settings: Env B04, subtype B'; mean ± SD of 3 assays in triplicate
Experimental: as §1

[5] = system: HIV-1 pseudovirus, primary Env CE1176_A3; settings: Env CE1176_A3, subtype C; mean ± SD of 3 assays in triplicate
Experimental: as §1

[6] = system: HIV-1 pseudovirus, primary Env CH070.1; settings: Env CH070.1, subtype B/C; mean ± SD of 3 assays in triplicate
Experimental: as §1

[7] = system: HIV-1 pseudovirus, primary Env CH119.10; settings: Env CH119.10, subtype B/C; mean ± SD of 3 assays in triplicate
Experimental: as §1

[8] = system: HIV-1 pseudovirus, primary Env CH120.6; settings: Env CH120.6, subtype B/C; mean ± SD of 3 assays in triplicate
Experimental: as §1

[9] = system: HIV-1 pseudovirus, primary Env CH64.20; settings: Env CH64.20, subtype B/C; mean ± SD of 3 assays in triplicate
Experimental: as §1

[10] = system: HIV-1 pseudovirus, primary Env CNE55; settings: Env CNE55, subtype A/E; mean ± SD of 3 assays in triplicate
Experimental: as §1

[11] = system: HIV-1 pseudovirus, primary Env GX11.13; settings: Env GX11.13, subtype A/E; mean ± SD of 3 assays in triplicate
Experimental: as §1

[12] = system: HIV-1 pseudovirus, primary Env HIV_25710–2.43; settings: Env HIV_25710–2.43, subtype C; mean ± SD of 3 assays in triplicate
Experimental: as §1

[13] = system: HIV-1 pseudovirus, primary Env JRFL; settings: subtype B, mean ± SD of 3 assays in triplicate
Experimental: as §1

[14] = system: HIV-1 pseudovirus, primary Env PVO; settings: subtype B, mean ± SD of 3 assays in triplicate
Experimental: as §1

[15] = system: HIV-1 pseudovirus, primary Env SC422661.8; settings: Env SC422661.8, subtype B; mean ± SD of 3 assays in triplicate
Experimental: as §1

[16] = system: HIV-1 pseudovirus, primary Env SF162; settings: Env SF162, subtype B; mean ± SD of 3 assays in triplicate
Experimental: as §1

[17] = system: HIV-1 pseudovirus, primary Env SHX335.24; settings: Env SHX335.24, subtype A/E; mean ± SD of 3 assays in triplicate
Experimental: as §1

[18] = system: HIV-1 pseudovirus, primary Env TRO.11; settings: Env TRO.11, subtype B; mean ± SD of 3 assays in triplicate
Experimental: as §1

[19] = system: HIV-1 pseudovirus, primary Env X2278_C2_B6; settings: Env X2278_C2_B6, subtype B; mean ± SD of 3 assays in triplicate
Experimental: as §1

[20] = system: divergent HIV-1 subtypes (pseudoviruses with primary Envs); settings: mean of the 36 pseudoviruses of Table 3; for VRC01 >300000 apparently counted as 300000; read-out: Mean IC50 over divergent HIV-1 subtypes
Experimental: as §1

[21] = system: replication-competent HIV-1 isolates; settings: mean of the ten isolates of Table 2; read-out: Mean IC50 over the replication-competent isolates
Experimental: as §1

[22] = system: HIV-1 pseudovirus, primary Env BJOX002000.03.2; settings: Env BJOX002000.03.2, subtype B/C; mean ± SD of 3 assays in triplicate
Experimental: as §1

| Molecule | IC50 (HIV-1 89.6) [nM] | IC50 (HIV-1 CH040.c/2625) [nM] | IC50 (HIV-1 R3A) [nM] | IC50 (HIV-1 WITO.c/2474) [nM] | IC50 [1] [nM] | IC50 [2] [nM] | IC50 [3] [nM] | IC50 [4] [nM] | IC50 [5] [nM] | IC50 [6] [nM] | IC50 [7] [nM] | IC50 [8] [nM] | IC50 [9] [nM] | IC50 [10] [nM] | IC50 [11] [nM] | IC50 [12] [nM] | IC50 [13] [nM] | IC50 [14] [nM] | IC50 [15] [nM] | IC50 [16] [nM] | other results |
| --- | --- | --- | --- | --- | --- | --- | --- | --- | --- | --- | --- | --- | --- | --- | --- | --- | --- | --- | --- | --- | --- |
| CCCCCCCCCCCCCCCCCC(=O)NCCCC[C@H](NC(=O)[C@H](CCC(=O)O)NC(=O)[C@H](CC(C)C)NC(=O)[C@H](CCCCN)NC(=O)[C@H](CCCCN)NC(=O)[C@H](CC(C)C)NC(=O)[C@H](CCC(=O)O)NC(=O)[C@H](CCC(=O)O)NC(=O)[C@H](CCC(=O)O)NC(=O)[C@H](CC(N)=O)NC(=O)[C@H](CCCCN)NC(=O)[C@H](CCCCN)NC(=O)[C@H](CCC(N)=O)NC(=O)[C@H](CCC(N)=O)NC(=O)[C@H](CCC(=O)O)NC(=O)[C@H](CCC(=O)O)NC(=O)[C@H](C)NC(=O)[C@H](CCCCN)NC(=O)[C@H](CCCCN)NC(=O)[C@H](CC(C)C)NC(=O)[C@H](CC(C)C)NC(=O)[C@H](CCC(=O)O)NC(=O)[C@H](CCC(=O)O)NC(=O)[C@@H](NC(C)=O)[C@@H](C)CC)C(N)=O [LP-90] (Ac-IEELLKKAEEQQKKNEEELKKLEK(Stearoyl)-NH2) | 0.0574 ± 0.0109 | 0.0502 ± 0.0138 | 0.00932 ± 0.00121 | 0.00406 ± 0.00167 | 0.0039 ± 0.00133 | 0.0141 ± 0.00417 | 0.0155 ± 0.00368 | 0.0175 ± 0.00772 | 0.00877 ± 0.00195 | 0.0317 ± 0.00204 | 0.0108 ± 0.00236 | 0.0254 ± 0.00162 | 0.00772 ± 0.00267 | 0.00254 ± 0.00089 | 0.0248 ± 0.00159 | 0.016 ± 0.00293 | 0.0122 ± 0.00083 | 0.0226 ± 0.0047 | 0.0385 ± 0.00705 | 0.00482 ± 0.00091 | IC50 (HIV-1 NL4-3): 0.0768 ± 0.019 nM; IC50 [17]: 0.00301 ± 0.0002 nM; IC50 [18]: 0.00895 ± 0.0023 nM; IC50 [19]: 0.00104 ± 0.00022 nM; IC50 [20]: 0.0134 nM; IC50 [21]: 0.0237 nM |
| enfuvirtide [Lipopeptide T-20, reference compound] | 15.4 ± 5.88 | 30.9 ± 3.81 | 6.73 ± 1.08 | 7.81 ± 1.62 | 23.2 ± 0.593 | 12.38 ± 0.109 | 10.4 ± 0.529 | 5.65 ± 0.366 | 8.4 ± 0.496 | 165 ± 28.3 | 11.5 ± 1.75 | 48.1 ± 4.92 | 33.3 ± 1.18 | 25.1 ± 2.33 | 24.9 ± 2.21 | 13.7 ± 1.85 | 9.62 ± 0.502 | 69.7 ± 0.698 | 16.1 ± 2.24 | 17.6 ± 1.03 | IC50 [22]: 26.3 ± 2.77 nM; IC50 [17]: 40.6 ± 1.42 nM; IC50 [18]: 7.05 ± 1.33 nM; IC50 [19]: 5.66 ± 0.0744 nM; IC50 [20]: 30 nM; IC50 [21]: 15.3 nM |
